Inhibition data for 1 molecule are collected here from publication PMC11576293, “New series of 4,6-diaryl pyrimidines: facile synthesis and antiproliferative activity as dual EGFR/VEGFR-2 inhibitors” (Frontiers in Chemistry, 2024).

One assay relates to U251. Briefly: NCI-60 single-dose screen. In kind it is cell-based. The following applies: Homo sapiens, U-251, single dose 10 µM, '-' = no inhibition, read-out: % Growth Inhibition. In outline: (§1)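 Single concentration (10 μM) per compound, assayed by the NCI DTP against its 60-line panel covering leukemia, lung, colon, CNS, melanoma, ovarian, renal, prostate and breast cancers.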
Consider `C=CCSc1nc(-c2ccc(Cl)cc2)cc(-c2ccc(OC)cc2)n1` [Compound 13, 2-(Allylthio)-4-(4-chlorophenyl)-6-(4-methoxyphenyl)pyrimidine], for which the inhibition – broadly, the percentage by which the read-out fell short of the control – at 10 µM was less than 0%.

Another assay deals with TK-10. Briefly: NCI-60 single-dose screen. The conditions noted are these: Homo sapiens, single dose 10 µM, '-' = no inhibition, read-out: % Growth Inhibition. In kind it is cell-based. In short, it runs like this:
as §1
In the case of `C=CCSc1nc(-c2ccc(Cl)cc2)cc(-c2ccc(OC)cc2)n1` [Compound 13, 2-(Allylthio)-4-(4-chlorophenyl)-6-(4-methoxyphenyl)pyrimidine], the inhibition at 10 µM is less than 0%.

Another assay relates to MCF7. Briefly: NCI-60 single-dose screen. In kind it is cell-based. The conditions noted are these: Homo sapiens, single dose 10 µM, '-' = no inhibition, read-out: % Growth Inhibition. In short, it runs like this: as §1
Turning to `C=CCSc1nc(-c2ccc(Cl)cc2)cc(-c2ccc(OC)cc2)n1` [Compound 13, 2-(Allylthio)-4-(4-chlorophenyl)-6-(4-methoxyphenyl)pyrimidine], the inhibition at 10 µM was less than 0%.

For the next assay, the system named is HT29. Nature of the assay: NCI-60 single-dose screen. In kind it is cell-based. The conditions noted are these: Homo sapiens, HT-29, single dose 10 µM, '-' = no inhibition, read-out: % Growth Inhibition. In outline:
as §1
For the molecule `C=CCSc1nc(-c2ccc(Cl)cc2)cc(-c2ccc(OC)cc2)n1` [Compound 13, 2-(Allylthio)-4-(4-chlorophenyl)-6-(4-methoxyphenyl)pyrimidine], the inhibition at 10 µM was found to be 17.2%.

A further assay deals with BT-549. Nature of the assay: NCI-60 single-dose screen. Format: cell-based. The following applies: Homo sapiens, single dose 10 µM, '-' = no inhibition, read-out: % Growth Inhibition. In outline:
as §1
Take `C=CCSc1nc(-c2ccc(Cl)cc2)cc(-c2ccc(OC)cc2)n1` [Compound 13, 2-(Allylthio)-4-(4-chlorophenyl)-6-(4-methoxyphenyl)pyrimidine]: the inhibition at 10 µM was less than 0%.

The next assay has as its system OVCAR-8. Nature of the assay: NCI-60 single-dose screen. In kind it is cell-based. The conditions noted are these: Homo sapiens, single dose 10 µM, '-' = no inhibition, read-out: % Growth Inhibition. In short, it runs like this:
as §1
For the molecule `C=CCSc1nc(-c2ccc(Cl)cc2)cc(-c2ccc(OC)cc2)n1` [Compound 13, 2-(Allylthio)-4-(4-chlorophenyl)-6-(4-methoxyphenyl)pyrimidine], the inhibition at 10 µM is less than 0%.

The test system of a further assay is NCI-H460. Briefly: NCI-60 single-dose screen. The conditions noted are these: Homo sapiens, single dose 10 µM, '-' = no inhibition, read-out: % Growth Inhibition. In kind it is cell-based. In outline:
as §1
As to `C=CCSc1nc(-c2ccc(Cl)cc2)cc(-c2ccc(OC)cc2)n1` [Compound 13, 2-(Allylthio)-4-(4-chlorophenyl)-6-(4-methoxyphenyl)pyrimidine], the inhibition at 10 µM worked out at 0.1%.

Another assay concerns HL-60(TB). Briefly: NCI-60 single-dose screen. Format: cell-based. The conditions noted are these: Homo sapiens, single dose 10 µM, '-' = no inhibition, read-out: % Growth Inhibition.
With `C=CCSc1nc(-c2ccc(Cl)cc2)cc(-c2ccc(OC)cc2)n1` [Compound 13, 2-(Allylthio)-4-(4-chlorophenyl)-6-(4-methoxyphenyl)pyrimidine], the inhibition at 10 µM was determined as 26.8%.

In another assay the test system is PC-3. Briefly: NCI-60 single-dose screen. The following applies: Homo sapiens, single dose 10 µM, '-' = no inhibition, read-out: % Growth Inhibition. Format: cell-based. In short, it runs like this:
as §1
Take `C=CCSc1nc(-c2ccc(Cl)cc2)cc(-c2ccc(OC)cc2)n1` [Compound 13, 2-(Allylthio)-4-(4-chlorophenyl)-6-(4-methoxyphenyl)pyrimidine]: the inhibition at 10 µM amounted to 1.15%.

In a further assay the test system is SNB-75. Nature of the assay: NCI-60 single-dose screen. Format: cell-based. The conditions noted are these: Homo sapiens, single dose 10 µM, '-' = no inhibition, read-out: % Growth Inhibition. In outline:
as §1
In the case of `C=CCSc1nc(-c2ccc(Cl)cc2)cc(-c2ccc(OC)cc2)n1` [Compound 13, 2-(Allylthio)-4-(4-chlorophenyl)-6-(4-methoxyphenyl)pyrimidine], the inhibition at 10 µM is less than 0%.

The test system of a further assay is UACC-62. Briefly: NCI-60 single-dose screen. Format: cell-based. The conditions noted are these: Homo sapiens, single dose 10 µM, '-' = no inhibition, read-out: % Growth Inhibition. In short, it runs like this:
as §1
As to `C=CCSc1nc(-c2ccc(Cl)cc2)cc(-c2ccc(OC)cc2)n1` [Compound 13, 2-(Allylthio)-4-(4-chlorophenyl)-6-(4-methoxyphenyl)pyrimidine], the inhibition at 10 µM was determined as 26.2%.

In a further assay the test system is MALME-3M. Briefly: NCI-60 single-dose screen. Format: cell-based. The following applies: Homo sapiens, single dose 10 µM, '-' = no inhibition, read-out: % Growth Inhibition. In outline:
as §1
For the molecule `C=CCSc1nc(-c2ccc(Cl)cc2)cc(-c2ccc(OC)cc2)n1` [Compound 13, 2-(Allylthio)-4-(4-chlorophenyl)-6-(4-methoxyphenyl)pyrimidine], the inhibition at 10 µM was less than 0%.

Another assay concerns HCC-2998. Briefly: NCI-60 single-dose screen. In kind it is cell-based. The following applies: Homo sapiens, single dose 10 µM, '-' = no inhibition, read-out: % Growth Inhibition. In outline: as §1
As to `C=CCSc1nc(-c2ccc(Cl)cc2)cc(-c2ccc(OC)cc2)n1` [Compound 13, 2-(Allylthio)-4-(4-chlorophenyl)-6-(4-methoxyphenyl)pyrimidine], the inhibition at 10 µM was less than 0%.

The next assay deals with NCI-H23. Nature of the assay: NCI-60 single-dose screen. The conditions noted are these: Homo sapiens, single dose 10 µM, '-' = no inhibition, read-out: % Growth Inhibition. In kind it is cell-based. In outline: as §1
In the case of `C=CCSc1nc(-c2ccc(Cl)cc2)cc(-c2ccc(OC)cc2)n1` [Compound 13, 2-(Allylthio)-4-(4-chlorophenyl)-6-(4-methoxyphenyl)pyrimidine], the inhibition at 10 µM is 3.36%.

The subject of another assay is RXF 393. Briefly: NCI-60 single-dose screen. The conditions noted are these: Homo sapiens, single dose 10 µM, '-' = no inhibition, read-out: % Growth Inhibition. In kind it is cell-based. In outline:
as §1
`C=CCSc1nc(-c2ccc(Cl)cc2)cc(-c2ccc(OC)cc2)n1` [Compound 13, 2-(Allylthio)-4-(4-chlorophenyl)-6-(4-methoxyphenyl)pyrimidine]: the inhibition at 10 µM turned out to be 0.35%.

The subject of another assay is SK-MEL-5. Nature of the assay: NCI-60 single-dose screen. In kind it is cell-based. The conditions noted are these: Homo sapiens, single dose 10 µM, '-' = no inhibition, read-out: % Growth Inhibition. In short, it runs like this:
as §1
Turning to `C=CCSc1nc(-c2ccc(Cl)cc2)cc(-c2ccc(OC)cc2)n1` [Compound 13, 2-(Allylthio)-4-(4-chlorophenyl)-6-(4-methoxyphenyl)pyrimidine], the inhibition at 10 µM was 1%.

For the next assay, the system named is SK-MEL-28. Nature of the assay: NCI-60 single-dose screen. Format: cell-based. The conditions noted are these: Homo sapiens, single dose 10 µM, '-' = no inhibition, read-out: % Growth Inhibition. In short, it runs like this: as §1
Regarding `C=CCSc1nc(-c2ccc(Cl)cc2)cc(-c2ccc(OC)cc2)n1` [Compound 13, 2-(Allylthio)-4-(4-chlorophenyl)-6-(4-methoxyphenyl)pyrimidine], the inhibition at 10 µM was less than 0%.

In a further assay the test system is SNB-19. Nature of the assay: NCI-60 single-dose screen. In kind it is cell-based. The following applies: Homo sapiens, single dose 10 µM, '-' = no inhibition, read-out: % Growth Inhibition. In short, it runs like this: as §1
On to `C=CCSc1nc(-c2ccc(Cl)cc2)cc(-c2ccc(OC)cc2)n1` [Compound 13, 2-(Allylthio)-4-(4-chlorophenyl)-6-(4-methoxyphenyl)pyrimidine], for which the inhibition at 10 µM was 6.79%.

The next assay concerns M14. Nature of the assay: NCI-60 single-dose screen. Format: cell-based. The following applies: Homo sapiens, single dose 10 µM, '-' = no inhibition, read-out: % Growth Inhibition. In short, it runs like this: as §1
Regarding `C=CCSc1nc(-c2ccc(Cl)cc2)cc(-c2ccc(OC)cc2)n1` [Compound 13, 2-(Allylthio)-4-(4-chlorophenyl)-6-(4-methoxyphenyl)pyrimidine], the inhibition at 10 µM was 4.04%.

A further assay has as its system UO-31. Nature of the assay: NCI-60 single-dose screen. In kind it is cell-based. The following applies: Homo sapiens, single dose 10 µM, '-' = no inhibition, read-out: % Growth Inhibition. In short, it runs like this: as §1
Turning to `C=CCSc1nc(-c2ccc(Cl)cc2)cc(-c2ccc(OC)cc2)n1` [Compound 13, 2-(Allylthio)-4-(4-chlorophenyl)-6-(4-methoxyphenyl)pyrimidine], the inhibition at 10 µM is 18.9%.

The test system of a further assay is COLO 205. Briefly: NCI-60 single-dose screen. Format: cell-based. The conditions noted are these: Homo sapiens, single dose 10 µM, '-' = no inhibition, read-out: % Growth Inhibition. In short, it runs like this: as §1
For `C=CCSc1nc(-c2ccc(Cl)cc2)cc(-c2ccc(OC)cc2)n1` [Compound 13, 2-(Allylthio)-4-(4-chlorophenyl)-6-(4-methoxyphenyl)pyrimidine], the inhibition at 10 µM is less than 0%.

The next assay relates to NCI-H322M. Briefly: NCI-60 single-dose screen. Format: cell-based. The following applies: Homo sapiens, single dose 10 µM, '-' = no inhibition, read-out: % Growth Inhibition. In outline:
as §1
As for `C=CCSc1nc(-c2ccc(Cl)cc2)cc(-c2ccc(OC)cc2)n1` [Compound 13, 2-(Allylthio)-4-(4-chlorophenyl)-6-(4-methoxyphenyl)pyrimidine], the inhibition at 10 µM worked out at 0.59%.

Another assay deals with SK-MEL-2. Nature of the assay: NCI-60 single-dose screen. In kind it is cell-based. The following applies: Homo sapiens, single dose 10 µM, '-' = no inhibition, read-out: % Growth Inhibition. In short, it runs like this:
as §1
As to `C=CCSc1nc(-c2ccc(Cl)cc2)cc(-c2ccc(OC)cc2)n1` [Compound 13, 2-(Allylthio)-4-(4-chlorophenyl)-6-(4-methoxyphenyl)pyrimidine], the inhibition at 10 µM is 4.96%.
